Each structure is given as a SMILES string.

Type in all cases: biochemical
For one experiment, the target named is DPP4 (Homo sapiens, UniProt P27487). As to the kind of experiment: DPP4 inhibition, fluorogenic substrate H-Gly-Pro-AMC. To be noted: recombinant human DPP4. Further details: purchased R&D Systems.
In the next experiment the target is T1, recombinant human DPP7 (Homo sapiens, UniProt Q9UHL4).
T1 construct: purchased R&D Systems
As to the kind of experiment: DPP7 inhibition, fluorogenic substrate Lys-Pro-AMC. To be noted: recombinant human DPP7. The method, boiled down: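 Enzyme per reaction: 50 ng DPP9, 20 ng DPP8, 10 ng each DPP7 and PREP. Compounds were serially diluted (8 points, up to 0.5% DMSO) and incubated at 25 °C.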

For another experiment, the target named is T2, recombinant human DPP9 (Homo sapiens, UniProt Q86TI2).
T2 construct: purchased R&D Systems
T2 sequence (Q86TI2 whole entry): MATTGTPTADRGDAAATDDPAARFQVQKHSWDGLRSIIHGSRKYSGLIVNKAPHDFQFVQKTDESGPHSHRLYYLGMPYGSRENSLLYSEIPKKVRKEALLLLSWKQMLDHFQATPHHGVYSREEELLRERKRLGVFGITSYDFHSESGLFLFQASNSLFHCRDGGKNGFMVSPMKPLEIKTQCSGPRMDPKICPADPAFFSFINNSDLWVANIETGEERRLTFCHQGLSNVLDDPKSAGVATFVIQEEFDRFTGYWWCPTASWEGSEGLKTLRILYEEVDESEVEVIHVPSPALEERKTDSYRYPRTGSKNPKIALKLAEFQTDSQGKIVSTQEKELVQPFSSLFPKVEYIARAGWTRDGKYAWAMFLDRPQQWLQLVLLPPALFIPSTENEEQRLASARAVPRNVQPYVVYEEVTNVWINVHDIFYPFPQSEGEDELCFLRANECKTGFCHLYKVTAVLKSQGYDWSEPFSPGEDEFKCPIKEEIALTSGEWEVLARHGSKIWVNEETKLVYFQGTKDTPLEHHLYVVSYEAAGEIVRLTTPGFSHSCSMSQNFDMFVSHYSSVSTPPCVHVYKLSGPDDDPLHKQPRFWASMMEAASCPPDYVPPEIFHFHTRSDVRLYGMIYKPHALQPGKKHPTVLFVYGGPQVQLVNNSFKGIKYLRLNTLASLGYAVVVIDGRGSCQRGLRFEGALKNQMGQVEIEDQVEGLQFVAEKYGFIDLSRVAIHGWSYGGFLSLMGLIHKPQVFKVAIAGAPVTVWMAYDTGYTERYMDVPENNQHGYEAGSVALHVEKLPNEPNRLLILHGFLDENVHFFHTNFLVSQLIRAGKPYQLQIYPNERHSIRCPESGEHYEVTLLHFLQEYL
As to the kind of experiment: DPP9 inhibition, fluorogenic substrate H-Gly-Pro-AMC. To be noted: recombinant human DPP9. Here is the method: (§1) The compounds according to the present technology were evaluated in terms of the inhibitory effect on the activity of dipeptidyl peptidases including FAP by using a substrate producing fluorescent substances upon enzymatic decomposition. The test was conducted at 25° C. to get a final reaction volume of 100 μL in a 96 black well plate. […] Briefly, the test compounds were dissolved in dimethyl sulfoxide (DMSO) at a concentration of 20 mM and then subjected to serial dilution, thereby creating an 8 point curve. As for the control group, a 6 point curve created by serial dilution of Talabostat in the same buffer solution was used. Fluorescence intensity was measured using a microplate reader (Flexstation3, Molecular Devices) under the wavelength condition exciting at 380 nm and reading the emission at 460 nm. The inhibitory effect of the test compounds was measured as a decrease (%) in the signal rate as compared to the control group without any inhibitor. Data was fixed to a logistic model with four variables and IC50 value was calculated using GraphPad Prism program. As for recombinant human DPP4 (R&D Systems), 25 mM tris (pH 8.0) buffer as a buffer solution and H-Gly-Pro-AMC (Bachem) as a substrate were used. As for recombinant human DPP7 (R&D Systems), 25 mM MES (pH 6.0) buffer as a buffer solution and Lys-Pro-AMC (Bachem) as a substrate were used. As for recombinant human DPP8 (PBS Bioscience), as a buffer solution, a 10 mM tris (pH 7.4) buffer comprising 10 mM of magnesium chloride and 0.05% of Tween 20, and Z-Ala-Pro-AMC (BPS Bioscience) as a substrate were used. As for recombinant human DPP9 (R&D Systems), a 25 mM tris (pH 8.0) buffer as a buffer solution and H-Gly-Pro-AMC (Bachem) as a substrate were used. As for recombinant human PREP (R&D System), as a buffer solution, a 25 mM tris (pH 7.5) buffer comprising 250 mM sodium chloride and 2.5 mM DTT (Dithiolthreitol), and Z-Gly-Pro-AMC (Bachem) as a substrate were used. The evaluation was made by using 10 ng of DPP4, PDD7, and PREP, 20 ng of DPP8, and 50 ng of DPP9 based on the final reaction. In the evaluation of DPP4, the test compounds were subjected to serial dilution in a buffer under the condition containing up to 0.1% of DMSO. In the evaluation of DPP7, DPP8, DPP9, and PREP, the test compounds were subjected to serial dilution in each buffer under the condition containing up to 0.5% of DMSO.

A further experiment concerns the target T3, recombinant human PREP (Homo sapiens, UniProt P48147).
T3 construct: purchased R&D System
T3 sequence (P48147 1-710): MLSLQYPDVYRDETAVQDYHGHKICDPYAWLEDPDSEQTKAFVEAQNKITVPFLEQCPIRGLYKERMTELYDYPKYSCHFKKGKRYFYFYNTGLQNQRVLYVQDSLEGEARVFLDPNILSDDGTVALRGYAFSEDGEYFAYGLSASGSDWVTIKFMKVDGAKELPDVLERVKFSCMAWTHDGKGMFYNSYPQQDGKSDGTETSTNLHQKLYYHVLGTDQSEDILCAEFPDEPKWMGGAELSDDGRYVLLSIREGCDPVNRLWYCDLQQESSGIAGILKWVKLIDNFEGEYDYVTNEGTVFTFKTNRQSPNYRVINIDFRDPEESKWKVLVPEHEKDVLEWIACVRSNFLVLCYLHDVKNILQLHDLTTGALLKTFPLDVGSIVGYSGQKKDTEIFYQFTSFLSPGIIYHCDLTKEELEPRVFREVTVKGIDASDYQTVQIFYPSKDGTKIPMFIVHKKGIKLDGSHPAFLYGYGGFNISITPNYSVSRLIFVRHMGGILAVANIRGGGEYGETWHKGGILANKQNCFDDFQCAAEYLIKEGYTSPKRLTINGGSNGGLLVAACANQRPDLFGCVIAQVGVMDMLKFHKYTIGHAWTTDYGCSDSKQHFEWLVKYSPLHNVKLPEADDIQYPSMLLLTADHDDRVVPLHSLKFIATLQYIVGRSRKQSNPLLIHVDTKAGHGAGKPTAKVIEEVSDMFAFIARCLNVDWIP
Put plainly: PREP inhibition, fluorogenic substrate Z-Gly-Pro-AMC. Particulars: Inhibitory Activity (IC50, nM) PREP, recombinant human PREP. The method, then:
as §1

The next experiment has as its target T4, Recombinant human FAP (Homo sapiens, UniProt Q12884).
T4 construct: purchased R&D systems
T4 sequence (Q12884 1-760): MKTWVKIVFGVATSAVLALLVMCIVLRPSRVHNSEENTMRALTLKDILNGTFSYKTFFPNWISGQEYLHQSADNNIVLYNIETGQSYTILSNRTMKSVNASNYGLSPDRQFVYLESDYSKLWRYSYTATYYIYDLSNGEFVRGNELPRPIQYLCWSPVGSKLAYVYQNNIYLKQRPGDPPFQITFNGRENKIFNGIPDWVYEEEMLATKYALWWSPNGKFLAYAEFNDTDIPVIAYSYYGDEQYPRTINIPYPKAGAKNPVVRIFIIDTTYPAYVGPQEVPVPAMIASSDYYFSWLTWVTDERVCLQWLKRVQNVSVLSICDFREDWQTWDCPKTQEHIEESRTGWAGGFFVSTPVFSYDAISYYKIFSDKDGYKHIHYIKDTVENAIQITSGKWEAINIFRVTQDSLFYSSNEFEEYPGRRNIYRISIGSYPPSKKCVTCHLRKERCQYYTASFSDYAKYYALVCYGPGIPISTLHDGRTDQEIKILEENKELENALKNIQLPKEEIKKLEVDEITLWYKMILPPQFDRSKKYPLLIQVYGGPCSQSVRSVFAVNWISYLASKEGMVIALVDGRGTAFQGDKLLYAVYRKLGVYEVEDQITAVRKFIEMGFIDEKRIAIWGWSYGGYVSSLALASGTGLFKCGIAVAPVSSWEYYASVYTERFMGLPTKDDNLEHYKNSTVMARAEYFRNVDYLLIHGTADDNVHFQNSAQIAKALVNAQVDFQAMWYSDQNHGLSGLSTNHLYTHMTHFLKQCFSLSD
As to the kind of experiment: FAP FRET assay, FGF21-sequence FRET peptide substrate. Particulars: FRET peptide with human FGF21 sequence, 6 μM, 37° C. An outline of the steps: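 Recombinant human FAP, 10 ng per reaction, in 50 mM HEPES pH 7.2 with 150 mM NaCl, 0.1 mg/ml BSA, 1 mM EDTA; HyLite Fluor 488/QXL 520 FRET peptide of human FGF21 sequence at 6 μM final, ≤0.1% DMSO, 37° C. IC50 from 8-point curves by four-parameter logistic fit.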

Chain of DPP4 (P27487 whole entry): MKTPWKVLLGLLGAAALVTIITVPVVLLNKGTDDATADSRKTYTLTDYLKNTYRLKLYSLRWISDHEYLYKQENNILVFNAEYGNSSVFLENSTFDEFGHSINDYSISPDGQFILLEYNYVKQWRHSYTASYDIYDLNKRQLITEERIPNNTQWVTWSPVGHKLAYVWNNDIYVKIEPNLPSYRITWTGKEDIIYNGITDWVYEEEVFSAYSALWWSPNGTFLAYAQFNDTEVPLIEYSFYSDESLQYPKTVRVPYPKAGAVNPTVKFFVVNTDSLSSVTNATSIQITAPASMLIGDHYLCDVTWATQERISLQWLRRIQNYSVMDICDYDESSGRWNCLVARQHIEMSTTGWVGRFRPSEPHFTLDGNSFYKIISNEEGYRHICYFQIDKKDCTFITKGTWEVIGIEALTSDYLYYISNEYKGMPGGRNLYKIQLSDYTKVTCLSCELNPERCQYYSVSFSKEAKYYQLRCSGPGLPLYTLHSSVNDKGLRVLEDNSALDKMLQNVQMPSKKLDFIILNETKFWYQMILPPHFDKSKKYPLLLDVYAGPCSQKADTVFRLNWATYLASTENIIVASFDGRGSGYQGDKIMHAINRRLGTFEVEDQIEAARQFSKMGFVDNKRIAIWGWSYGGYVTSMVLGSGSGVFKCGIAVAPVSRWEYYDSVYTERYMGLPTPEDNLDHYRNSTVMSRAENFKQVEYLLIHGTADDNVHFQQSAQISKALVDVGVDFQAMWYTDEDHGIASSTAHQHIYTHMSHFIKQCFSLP

As to `CN(Cc1ccccc1)C(=O)c1ccc(N[C@H]2CCN(CC(=O)N3CCC[C@H]3C#N)C2)c2cccnc12` [Example 288, N-benzyl-N-methyl-5-[[(3S)-1-[2-oxo-2-[(2S)-2-cyanopyrrolidin-1-yl]ethyl]pyrrolidin-3-yl]amino]quinoline-8-carboxamide], the half-inhibitory concentration (IC50) (in general, the midpoint of a concentration-inhibition curve) on DPP4 was determined as 18500 nM; at recombinant human DPP7, 677 nM; at recombinant human DPP9, 1210 nM; at recombinant human PREP it was 11400 nM; on Recombinant human FAP it was 14 nM.
The corresponding values for `Cc1cnc2cccc(N[C@@H]3CCN(CC(=O)N4CCC[C@H]4C#N)C3)c2c1` [Example 208, (2S)-1-[2-[(3R)-3-[(3-methyl-5-quinolyl)amino]pyrrolidin-1-yl]acetyl]pyrrolidine-2-carbonitrile] are 6510 nM, 1370 nM, 19200 nM, 12000 nM and 1.7 nM.
The corresponding values for `Cc1cnc2ccc(N[C@@H]3CCN(CC(=O)N4C[C@@H](F)C[C@H]4C#N)C3)cc2c1` [Example 211, (2S,4S)-4-fluoro-1-[2-[(3R)-3-[(3-methyl-6-quinolyl)amino]pyrrolidin-1-yl]acetyl]pyrrolidine-2-carbonitrile] are 1800 nM, 369 nM, 657 nM, 2740 nM and 5.2 nM.
The corresponding values for `CCN(c1ccc2ncccc2c1)C1CCN(CC(=O)N2CCC[C@H]2C#N)CC1` [Example 303, (2S)-1-[2-[4-[ethyl(6-quinolyl)amino]-1-piperidyl]acetyl]pyrrolidine-2-carbonitrile] are no less than 100000 nM, 1940 nM, no less than 100000 nM, 483 nM and 9.2 nM.
With `CC(=O)Nc1ccc(N[C@H]2CCN(CC(=O)N3CCC[C@H]3C#N)C2)c2cccnc12` [Example 296, N-[5-[[(3S)-1-[2-oxo-2-[(2S)-2-cyanopyrrolidin-1-yl]ethyl]pyrrolidin-3-yl]amino]-8-quinolyl]acetamide], the IC50 at DPP4 amounted to 15600 nM; on recombinant human DPP7, 142 nM; at recombinant human DPP9, 10600 nM; at recombinant human PREP, 6440 nM; on Recombinant human FAP, 4.7 nM.
The corresponding values for `CCN(c1ccc2ncccc2c1)C1CCN(CC(=O)N2C[C@@H](F)C[C@H]2C#N)CC1` [Example 306, (2S,4S)-1-[2-[4-[ethyl(6-quinolyl)amino]-1-piperidyl]acetyl]-4-fluoro-pyrrolidine-2-carbonitrile] are 24300 nM, 477 nM, 13200 nM, 129 nM and 4.4 nM.
On the same counts, the results for `COc1cc(N[C@@H]2CCN(CC(=O)N3C[C@@H](F)C[C@H]3C#N)C2)c2cccnc2c1` [Example 177, (2S,4S)-4-fluoro-1-[2-[(3R)-3-[(7-methoxy-5-quinolyl)amino]pyrrolidin-1-yl]acetyl]pyrrolidine-2-carbonitrile] are 3420 nM, 46.9 nM, 1170 nM, 2920 nM and 2.6 nM.
With `COc1cnc2cccc(N[C@@H]3CCN(CC(=O)N4CCC[C@H]4C#N)C3)c2c1` [Example 204, (2S)-1-[2-[(3R)-3-[(3-methoxy-5-quinolyl)amino]pyrrolidin-1-yl]acetyl]pyrrolidine-2-carbonitrile], the IC50 worked out at 6200 nM on DPP4; 3870 nM on recombinant human DPP7; 16200 nM on recombinant human DPP9; 11500 nM on recombinant human PREP; 2.1 nM on Recombinant human FAP.
As for `N#C[C@@H]1C[C@H](F)CN1C(=O)CN1CC[C@@H](Nc2c(F)ccc3ncccc23)C1` [Example 173, (2S,4S)-4-fluoro-1-[2-[(3R)-3-[(6-fluoro-5-quinolyl)amino]pyrrolidin-1-yl]acetyl]pyrrolidine-2-carbonitrile], the 50% inhibitory concentration (IC50) on DPP4 was 1120 nM; on recombinant human DPP7, 11100 nM; at recombinant human DPP9, 2950 nM; on recombinant human PREP, 1870 nM; on Recombinant human FAP, 5.3 nM.
On the same counts, the results for `Cc1cnc2cccc(N[C@@H]3CCN(CC(=O)N4C[C@@H](F)C[C@H]4C#N)C3)c2c1` [Example 179, (2S,4S)-4-fluoro-1-[2-[(3R)-3-[(3-methyl-5-quinolyl)amino]pyrrolidin-1-yl]acetyl]pyrrolidine-2-carbonitrile] are 1940 nM, 401 nM, 2560 nM, 2930 nM and 3.6 nM.
The corresponding values for `CCOc1ccc(NC2CCN(CC(=O)N3C[C@@H](F)C[C@H]3C#N)CC2)c2cccnc12` [Example 371, (2S,4S)-1-[2-[4-[(8-ethoxy-5-quinolyl)amino]-1-piperidyl]acetyl]-4-fluoro-pyrrolidine-2-carbonitrile] are 4570 nM, 307 nM, 5200 nM, 4910 nM and 7 nM.
